The source of these data is US8415376B2, “Inhibitors of PI3 kinase” (Amgen Inc., priority 2008, dated 2013).

One test addresses T1, PI3Kα (Homo sapiens, UniProt P42336).
T1 construct: Full length p110 subunits of PI3K α, β and δ, N-terminally labeled with polyHis tag; polyHis (N); made in house; host or cells: Sf9 insect cells (baculovirus)
The test is described as follows: In vitro PI3 kinase enzyme assay (PI3K ATP loss), alpha. Format: biochemical. To be noted: average if run more than once; read-out: ATP Loss (PBKα) IC50 μM (Avg).

Another test has as its target T2, PI3Kβ (Homo sapiens, UniProt P42338).
T2 construct: Full length p110 subunits of PI3K α, β and δ, N-terminally labeled with polyHis tag; polyHis (N); made in house; host or cells: Sf9 insect cells (baculovirus)
The test is described as follows: In vitro PI3 kinase enzyme assay (PI3K ATP loss), beta. The class given is biochemical. To be noted: average if run more than once.

Test [1] concerns phosphorylation of Akt at Ser473. Put plainly: Cell-based phospho-Akt Ser473 assay (HCT116 cell). To be noted: HCT 116 human colon carcinoma cells, IGF-1 stimulated; average. From the text: Cell-Based Phospho-Akt Ser473 Assay (HCT116 Cell)
This assay determines the ability of a compound to inhibit the phosphorylation of […] in Akt using a MSD based sandwich immunoassay (Meso Scale Detection, Meso Scale Discovery (MSD), Gaithersburg, Md.). HCT 116 human colon carcinoma cell lines can be grown in McCoy's 5A growth medium (GIBCO, Carlsbad, Calif.) containing 10% FBS (GIBCO, Carlsbad, Calif.) and X1 Penicillin-streptomycin-glutamine (GIBCO, Carlsbad, Calif.). Prior to the assay, cells can be detached from the culture flask with trypsin, and re-suspended in complete media to give a final concentration of 1.6×10^5 cells per mL. Aliquots (100 μl) of the HCT116 cell suspension can be seeded into each well of a 96 well tissue culture plate to give a final density of 16,000 cells per well. Cells can then be incubated overnight at 37° C.
The following day the cells can be treated with serially diluted test compounds and incubated for 2 hours at 37° C. The culture media on the HCT 116 cells can be replaced with 189 μL McCoys media, supplemented with 0.1% BSA (ICN Biomedicals, Inc., Costa Mesa, Calif.). Compounds can be prepared as either 10 mM or 0.5 mM stock solutions in DMSO, and serially diluted 3 fold in a 10-point dose-response curve to give final concentrations that are 200-fold greater than the desired final test concentration. Aliquots (1 μL) of serially-diluted compounds can be transferred to 96 well tissue culture plates containing the HCT 116 cells. […] As a maximum response control, wells can contain 0.5% DMSO in place of compound. The plates can be mixed at 700 rpm for 2 min to ensure even distribution of the test compound and incubated for 2 hours at 37° C. Cells can then be stimulated with insulin-like growth factor 1 (Sigma, St Louis, Mo.) at final concentration of 100 ng/ml for 15 minutes at 37° C. The media can then be removed and the cells treated with 80 μL cell-lysis buffer (MSD) containing a cocktail of protease and phosphatase inhibitors for one hour at 4° C.
25 μL Cell lysate can then be transferred to pre-blocked MSD assay plates pre-coated with a capture antibody specific for Akt, and the plates can be incubated for 2 hours at room temperature. The cell lysates can then be removed and plates can then be washed four times with 200 μl per well of Tris wash buffer (500 mM Tris, PH 7.5, 1.5 M NaCl, 0.2% Tween-20). Subsequently cells can be incubated for 1 hour at room temperature with a 25 μL solution containing the detection antibody, anti-phospho Akt (Ser 473) labeled with an electrochemiluminescent compound (Meso Scale Discovery SULPHO-TAG™ label, MSD, Gaithersburg, Md.). The detection antibody can be removed and plates can then be washed four times with 200 μL per well of Tris wash buffer. An aliquot of 150 μL of diluted MSD read buffer can then be applied to each well, and the electrochemiluminescent signal can be measured using a MSD SECTOR™ plate reader (Meso Scale Discovery, Gaithersburg, Md.). This instrument measures the intensity of emitted light to determine a quantitative measure of phosphorylated Akt in each well. The dose-response data obtained with each compound can be analyzed and the IC50 inhibition of Akt phosphorylation at Ser473 can be calculated.
Activity data for the compounds tested in the PI3K cell based Akt assay is provided in Table 1 under the column heading HCT116 Cell.

T1 sequence (P42336 whole entry): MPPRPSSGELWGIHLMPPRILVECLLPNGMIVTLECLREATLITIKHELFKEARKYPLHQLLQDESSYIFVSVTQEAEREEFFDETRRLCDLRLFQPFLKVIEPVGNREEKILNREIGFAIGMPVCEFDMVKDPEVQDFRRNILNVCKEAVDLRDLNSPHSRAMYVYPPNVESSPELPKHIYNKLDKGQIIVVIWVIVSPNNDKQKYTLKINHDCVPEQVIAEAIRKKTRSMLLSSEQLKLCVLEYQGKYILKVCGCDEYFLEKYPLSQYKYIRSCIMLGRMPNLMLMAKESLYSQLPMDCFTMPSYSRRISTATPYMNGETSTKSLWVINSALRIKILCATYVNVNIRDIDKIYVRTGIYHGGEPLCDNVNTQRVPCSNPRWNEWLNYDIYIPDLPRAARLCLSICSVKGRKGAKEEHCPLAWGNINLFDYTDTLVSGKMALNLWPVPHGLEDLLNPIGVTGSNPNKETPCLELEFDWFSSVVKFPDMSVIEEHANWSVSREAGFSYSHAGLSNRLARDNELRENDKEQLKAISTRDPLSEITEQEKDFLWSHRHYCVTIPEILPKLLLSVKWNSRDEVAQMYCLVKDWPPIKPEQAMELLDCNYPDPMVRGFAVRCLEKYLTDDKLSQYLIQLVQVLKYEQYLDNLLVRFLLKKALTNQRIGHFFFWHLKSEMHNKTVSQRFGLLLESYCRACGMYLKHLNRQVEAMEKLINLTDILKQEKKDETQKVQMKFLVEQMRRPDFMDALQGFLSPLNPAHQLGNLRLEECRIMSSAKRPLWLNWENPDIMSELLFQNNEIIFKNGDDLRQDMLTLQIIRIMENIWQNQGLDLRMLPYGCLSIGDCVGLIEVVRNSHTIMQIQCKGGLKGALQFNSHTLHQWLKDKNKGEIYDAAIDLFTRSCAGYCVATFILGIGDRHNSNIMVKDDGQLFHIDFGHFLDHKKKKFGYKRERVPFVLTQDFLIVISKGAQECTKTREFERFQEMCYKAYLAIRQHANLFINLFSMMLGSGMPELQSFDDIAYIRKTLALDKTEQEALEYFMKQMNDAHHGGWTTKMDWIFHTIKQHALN
T1 sequence (P27986 whole entry partner): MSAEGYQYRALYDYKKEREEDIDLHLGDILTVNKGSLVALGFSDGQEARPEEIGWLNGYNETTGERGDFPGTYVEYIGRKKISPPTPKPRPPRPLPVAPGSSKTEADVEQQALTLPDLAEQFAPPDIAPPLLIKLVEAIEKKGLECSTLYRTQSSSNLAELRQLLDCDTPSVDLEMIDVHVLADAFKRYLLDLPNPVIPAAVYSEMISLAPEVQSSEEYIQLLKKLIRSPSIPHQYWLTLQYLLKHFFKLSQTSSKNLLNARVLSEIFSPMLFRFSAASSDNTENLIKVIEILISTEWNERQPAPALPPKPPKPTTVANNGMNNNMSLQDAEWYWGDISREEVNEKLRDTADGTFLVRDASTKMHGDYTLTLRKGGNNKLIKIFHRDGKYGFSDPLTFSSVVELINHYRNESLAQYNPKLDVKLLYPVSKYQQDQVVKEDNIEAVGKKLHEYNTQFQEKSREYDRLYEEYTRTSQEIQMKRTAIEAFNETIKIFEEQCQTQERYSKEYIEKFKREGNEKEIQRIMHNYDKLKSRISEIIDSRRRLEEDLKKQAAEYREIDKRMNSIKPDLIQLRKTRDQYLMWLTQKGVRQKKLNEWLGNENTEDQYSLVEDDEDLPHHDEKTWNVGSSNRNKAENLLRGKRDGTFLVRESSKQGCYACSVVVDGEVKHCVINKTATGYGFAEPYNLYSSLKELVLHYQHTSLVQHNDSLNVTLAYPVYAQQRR
T2 sequence (P42338 whole entry): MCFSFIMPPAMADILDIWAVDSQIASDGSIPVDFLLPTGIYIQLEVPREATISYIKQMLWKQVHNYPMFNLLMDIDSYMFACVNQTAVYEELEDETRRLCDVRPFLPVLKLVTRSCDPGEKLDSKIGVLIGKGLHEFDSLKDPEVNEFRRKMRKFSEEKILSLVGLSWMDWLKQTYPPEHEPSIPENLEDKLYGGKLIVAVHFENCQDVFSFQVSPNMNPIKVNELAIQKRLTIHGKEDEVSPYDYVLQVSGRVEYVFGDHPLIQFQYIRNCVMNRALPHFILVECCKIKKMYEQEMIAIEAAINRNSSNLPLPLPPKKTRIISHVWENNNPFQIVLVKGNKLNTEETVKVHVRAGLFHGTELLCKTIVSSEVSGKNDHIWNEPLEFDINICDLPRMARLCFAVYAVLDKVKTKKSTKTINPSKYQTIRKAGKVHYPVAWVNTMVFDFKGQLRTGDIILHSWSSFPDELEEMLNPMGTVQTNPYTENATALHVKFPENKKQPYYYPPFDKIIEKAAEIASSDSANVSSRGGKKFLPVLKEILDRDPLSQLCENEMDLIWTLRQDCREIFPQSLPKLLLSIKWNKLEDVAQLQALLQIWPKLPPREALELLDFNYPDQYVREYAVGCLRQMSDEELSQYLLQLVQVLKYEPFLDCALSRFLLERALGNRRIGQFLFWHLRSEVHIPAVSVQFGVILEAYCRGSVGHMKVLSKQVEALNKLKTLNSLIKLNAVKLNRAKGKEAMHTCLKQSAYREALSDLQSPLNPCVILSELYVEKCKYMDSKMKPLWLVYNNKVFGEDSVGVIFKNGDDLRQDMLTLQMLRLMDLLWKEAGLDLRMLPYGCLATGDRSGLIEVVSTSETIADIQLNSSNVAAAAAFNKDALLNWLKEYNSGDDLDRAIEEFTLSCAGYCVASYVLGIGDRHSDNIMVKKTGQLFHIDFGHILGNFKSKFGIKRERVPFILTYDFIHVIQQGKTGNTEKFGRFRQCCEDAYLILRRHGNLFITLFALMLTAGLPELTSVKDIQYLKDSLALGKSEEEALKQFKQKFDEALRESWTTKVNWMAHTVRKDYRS
T2 sequence (P27986 whole entry partner): as the sequence (P27986 whole entry partner) above
Procedure for PI3Kα: Full length p110 subunits of PI3K α, β and δ, N-terminally labeled with polyHis tag, can be co-expressed with p85 with Baculo virus expression vectors in sf9 insect cells. P110/p85 heterodimers can be purified by sequential Ni-NTA, Q-HP, Superdex-100 chromatography. Purified α, β and δ isozymes can be stored at −20° C. in 20 mM Tris, pH 8, 0.2M NaCl, 50% glycerol, 5 mM DTT, 2 mM Na cholate. […] The γ isozyme can be purified by sequential Ni-NTA, Superdex-200, Q-HP chromatography. The γ isozyme can be stored frozen at −80° C. in NaH2PO4, pH 8, 0.2M NaCl, 1% ethylene glycol, 2 mM β-mercaptoethanol.
In Vitro PI3 Kinase Enzyme Assays (PI3K Atploss)
PI3K enzyme assays (alpha, beta, delta and gamma) can be performed in 25 μL with the above final concentrations of components in white polyproplyene plates. Phosphatidyl inositol phosphoacceptor, PtdIns(4,5)P2 (eg. P4508) can be obtained from Echelon Biosciences, Salt Lake City, Utah. […] Test compounds can be dissolved in DMSO and diluted with three-fold serial dilutions. The compound in DMSO (1 μL) may be added per test well, and the inhibition relative to reactions containing no compound, with and without enzyme can be determined After assay incubation at RT, the reaction can be stopped and residual ATP can be determined by addition of an equal volume of a commercial ATP bioluminescence kit (Perkin Elmer EasyLite, Perkin Elmer, Waltham, Mass.) according to the manufacturer's instructions, and detected using an Analyst GT luminometer.

Turning to `O=S(=O)(Nc1cc(-c2ccc3nccc(N4CCOCC4)c3c2)cnc1Cl)c1ccccc1Cl` [Example 33, 2-chloro-N-(2-chloro-5-(4-(4-morpholinyl)-6-quinolinyl)-3-pyridinyl)benzenesulfonamide], the IC50 at PI3Kα stood at 0.0041 µM; against PI3Kβ it was 0.0219 µM; in test [1], 0.0063 µM.
As to `O=S(=O)(Nc1cc(-c2cccc3cnncc23)cnc1Cl)c1ccc(F)cc1` [Example 39, N-(2-chloro-5-(5-phthalazinyl)-3-pyridinyl)-4-fluorobenzenesulfonamide], the 50% inhibitory concentration (IC50) on PI3Kα is 1.9 µM; against PI3Kβ, 4.12 µM.
Consider `CN(CC#N)c1cnc2ccc(-c3cnc(Cl)c(NS(=O)(=O)c4ccc(F)cc4)c3)cc2n1` [Example 71, N-(2-chloro-5-(3-((cyanomethyl)(methyl)amino)-6-quinoxalinyl)-3-pyridinyl)-4-fluorobenzenesulfonamide], for which the IC50 on PI3Kα was 0.0188 µM; against PI3Kβ it was 0.0934 µM; in test [1] it was 0.0893 µM.
`NCc1cc(-c2ccc3nccc(N4CCOCC4)c3c2)cnc1Cl` [Example 16, 1-(2-chloro-5-(4-(4-morpholinyl)-6-quinolinyl)-3-pyridinyl)methanamine]: the IC50 was 3.53 µM on PI3Kα and 26.7 µM at PI3Kβ.
`O=S(=O)(Nc1cc(-c2ccc3nccc(N4CCN(Cc5ccccc5)CC4)c3c2)cnc1Cl)c1ccc(F)cc1` [Example 28, N-(5-(4-(4-benzyl-1-piperazinyl)-6-quinolinyl)-2-chloro-3-pyridinyl)-4-fluorobenzenesulfonamide]: the IC50 is 0.0062 µM at PI3Kα and 0.0339 µM against PI3Kβ.
The like results for `CC(c1ccccc1)N1CCN(c2ccnc3ccc(-c4cnc(Cl)c(N(C)C)c4)cc23)CC1` (stereo not drawn) [Example 53, 2-chloro-N,N-dimethyl-5-(4-(4-(1-phenylethyl)-1-piperazinyl)-6-quinolinyl)-3-pyridinamine] were, in that order, 0.294 µM and 4.22 µM.
As for `O=S(=O)(Nc1cc(-c2cnc3ncccc3c2)cnc1Cl)c1ccc(F)cc1` [Example 44, N-(2-chloro-5-(1,8-naphthyridin-3-yl)-3-pyridinyl)-4-fluorobenzenesulfonamide], the half-maximal inhibitory concentration (IC50) at PI3Kα turned out to be 2.84 µM; at PI3Kβ, 5.61 µM.
Consider `O=S(=O)(Nc1cc(-c2ccc3cccnc3c2)cnc1Cl)c1ccc(F)cc1` [Example 18, N-(2-chloro-5-(7-quinolinyl)-3-pyridinyl)-4-fluorobenzenesulfonamide], for which the IC50 came to 1.97 µM on PI3Kα and 7.7 µM on PI3Kβ.
As for `O=S(=O)(Nc1cc(-c2ccc3cnncc3c2)cnc1Cl)c1ccc(F)cc1` [Example 40, N-(2-chloro-5-(6-phthalazinyl)-3-pyridinyl)-4-fluorobenzenesulfonamide], the IC50 amounted to 0.899 µM at PI3Kα and 0.698 µM at PI3Kβ.
Regarding `O=S(=O)(Nc1cc(-c2ccc3ncccc3n2)cnc1Cl)c1ccc(F)cc1` [Example 41, N-(2-chloro-5-(1,5-naphthyridin-2-yl)-3-pyridinyl)-4-fluorobenzenesulfonamide], the IC50 against PI3Kβ is 0.0597 µM; in test [1], 0.629 µM.
On to `CN(C)c1cc(-c2ccc3ncccc3c2)cnc1Cl` [Example 13, 2-chloro-N,N-dimethyl-5-(6-quinolinyl)-3-pyridinamine], for which the IC50 at PI3Kα was 1.12 µM.
Regarding `CN(C)c1cc(-c2ccc3nccc(N4CCOCC4)c3c2)cnc1Cl` [Example 51, 2-chloro-N,N-dimethyl-5-(4-(4-morpholinyl)-6-quinolinyl)-3-pyridinamine], the values for the IC50 on PI3Kα and against PI3Kβ were 0.179 µM and 2.46 µM, respectively.
As for `CC(C)N1CCN(c2cnc3ccc(-c4cnc(Cl)c(NS(=O)(=O)c5ccc(F)cc5)c4)cc3n2)CC1` [Example 21, N-(2-chloro-5-(3-(4-(1-methylethyl)-1-piperazinyl)-6-quinoxalinyl)-3-pyridinyl)-4-fluorobenzenesulfonamide], the values for the IC50 (at PI3Kα; in test [1]) were 0.0054 µM and 0.0115 µM, respectively.
Turning to `COCCOc1ccnc2ccc(-c3cnc(Cl)c(NS(=O)(=O)c4ccc(F)cc4)c3)cc12` [Example 31, N-(2-chloro-5-(4-(2-methoxyethoxy)-6-quinolinyl)-3-pyridinyl)-4-fluorobenzenesulfonamide], the IC50 on PI3Kβ is 0.0144 µM; in test [1], 0.0252 µM.
On to `O=S(=O)(Nc1cc(-c2ccc3nnccc3c2)cnc1Cl)c1ccc(F)cc1` [Example 37, N-(2-chloro-5-(6-cinnolinyl)-3-pyridinyl)-4-fluorobenzenesulfonamide], for which the IC50 on PI3Kα came to 0.0783 µM; at PI3Kβ, 0.212 µM.
For `CN(Cc1ccccc1)c1cnc2ccc(-c3cnc(Cl)c(NS(=O)(=O)c4ccc(F)cc4)c3)cc2n1` [Example 65, N-(5-(3-(benzyl(methyl)amino)-6-quinoxalinyl)-2-chloro-3-pyridinyl)-4-fluorobenzenesulfonamide], the IC50 against PI3Kβ was 0.0303 µM; in test [1], 0.279 µM.
The like results for `O=S(=O)(Nc1cc(-c2ccc3ncc(NCCN4CCCCC4)nc3c2)cnc1Cl)c1ccc(F)cc1` [Example 61, N-(2-chloro-5-(3-((2-(1-piperidinyl)ethyl)amino)-6-quinoxalinyl)-3-pyridinyl)-4-fluorobenzenesulfonamide] were, in that order, 0.0155 µM and 0.0515 µM.
On to `COC1CCN(c2cnc3ccc(-c4cnc(Cl)c(NS(=O)(=O)c5ccc(F)cc5)c4)cc3n2)CC1` [Example 69, N-(2-chloro-5-(3-(4-methoxy-1-piperidinyl)-6-quinoxalinyl)-3-pyridinyl)-4-fluorobenzenesulfonamide], for which the IC50 against PI3Kβ amounted to 0.0344 µM; in test [1], 0.0526 µM.
As to `CC(=O)OCc1cc(-c2ccc3nccc(N4CCOCC4)c3c2)cnc1Cl` [Example 15, (2-chloro-5-(4-(4-morpholinyl)-6-quinolinyl)-3-pyridinyl)methyl acetate], the figures for the IC50 at PI3Kα and on PI3Kβ were 1.39 µM and 3.67 µM, respectively.
Take `COCCN(C)c1cnc2ccc(-c3cnc(Cl)c(NS(=O)(=O)c4ccc(F)cc4)c3)cc2n1` [Example 55, N-(2-chloro-5-(3-((2-methoxyethyl)(methyl)amino)-6-quinoxalinyl)-3-pyridinyl)-4-fluorobenzenesulfonamide]: the IC50 on PI3Kβ amounted to 0.0207 µM; in test [1], 0.064 µM.
Turning to `CN(C)c1cc(-c2ccc3nccc(Cl)c3c2)cnc1Cl` [Example 52, 2-chloro-5-(4-chloro-6-quinolinyl)-N,N-dimethyl-3-pyridinamine], the IC50 came out at 0.43 µM on PI3Kα and 2.24 µM against PI3Kβ.
Regarding `CC(C)(C)C(=O)NCc1cc(-c2ccc3nccc(N4CCOCC4)c3c2)cnc1Cl` [Example 17, N-((2-chloro-5-(4-(4-morpholinyl)-6-quinolinyl)-3-pyridinyl)methyl)-2,2-dimethylpropanamide], the IC50 on PI3Kα was 3.11 µM; against PI3Kβ, 27.4 µM.
The like results for `OCc1cc(-c2ccc3nccc(N4CCOCC4)c3c2)cnc1Cl` [Example 14, (2-chloro-5-(4-(4-morpholinyl)-6-quinolinyl)-3-pyridinyl)methanol] were, in that order, 1.13 µM and 5.42 µM.
On to `CNc1ccc2cc(-c3cnc(Cl)c(NS(=O)(=O)c4ccc(OC)cc4)c3)ccc2n1` [Example 48, N-(2-chloro-5-(2-(methylamino)-6-quinolinyl)-3-pyridinyl)-4-methoxybenzenesulfonamide], for which the figures for the IC50 on PI3Kα and against PI3Kβ were 0.0954 µM and 2.49 µM, respectively.
Regarding `O=S(=O)(Nc1cc(-c2ccc3nccc(Cl)c3c2)cnc1Cl)c1ccc(F)cc1` [Example 2, N-(2-chloro-5-(4-chloro-6-quinolinyl)-3-pyridinyl)-4-fluorobenzenesulfonamide], the IC50 against PI3Kβ was determined as 0.0093 µM; in test [1] it was 0.109 µM.

The term IC50 denotes the concentration that gives 50% inhibition.
